From US11628160B2, “Compositions and methods for treating brain injury” (Azevan Pharmaceuticals, Inc., priority 2017, dated 2023)

Assays:
Assay type in all cases: in vivo, rat
[1] = test system: Male Sprague Dawley rats; test: Motor behavior (balance beam, rotarod)
Protocol: EXAMPLE. Momentum exchange impact model. This model features several advantageous translational differences over some head injury models, such as the controlled cortical impact injury model. For example, the head, neck and body can move with impact, and the velocity of head movement and energy transfer can be calculated and scaled mild to provide range from moderate to severe concussions. Studies are conducted with moderate impacts with neuroradiological evidence of contusions. Male rats are concussed twice with one day. Additional details are described in Viano et al., “Evaluation of three animal models for concussion and serious brain injury” Ann Biomed Eng. 40(1):213-26 (2012). […] Sham non-concussed test animals are given vehicle or test compound. Test animals are treated twice daily for 5 consecutive days. At two weeks post concussion cognitive behaviors are assessed, using for example, the Barnes maze and/or novel recognition models. In addition, motor behaviors are assessed, using for example, beam walk and/or rotarod tests. In each case, neuroradiological MRI is also performed. […]

[2] = test system: Male Sprague Dawley rats; test: Novel Object Recognition test (momentum exchange impact model)
Protocol: EXAMPLE. Momentum exchange impact model. This model features several advantageous translational differences over some head injury models, such as the controlled cortical impact injury model. For example, the head, neck and body can move with impact, and the velocity of head movement and energy transfer can be calculated and scaled mild to provide range from moderate to severe concussions. Studies are conducted with moderate impacts with neuroradiological evidence of contusions. Male rats are concussed twice with one day. Additional details are described in Viano et al., “Evaluation of three animal models for concussion and serious brain injury” Ann Biomed Eng. 40(1):213-26 (2012). […] Sham non-concussed test animals are given vehicle or test compound. Test animals are treated twice daily for 5 consecutive days. At two weeks post concussion cognitive behaviors are assessed, using for example, the Barnes maze and/or novel recognition models. In addition, motor behaviors are assessed, using for example, beam walk and/or rotarod tests. In each case, neuroradiological MRI is also performed.
Beginning on postnatal (P)70, animals are divided into 3 groups (n=6-7/group; Sham Control Group (Control, CG), Injury Group (IG), and Treatment Group (TG) and begin their head impact, and drug regimens. All groups are anaesthetized with 4% isoflurane in oxygen, and Injury group and Treatment group receive the first of two total head impacts) using a custom setup from Animal Imaging Research (AIR; Holden, Mass.) on P70. The day after the first impact (P71), test compound, such as AVN576, is administered to the Treatment group and the Sham Control group. In addition, a vehicle only control group (VCG) is administered saline. All administrations re administered to the Control and Treatment groups twice per day at 0700 and 1400 (IP @10 mg/kg). The drug regimen is continued over the following 4 days (5 days total). The second head impact is delivered two days following the first on P72. Two weeks post impact, animals are imaged and tested for cognitive and motor behaviors. In all evaluations made, there was not a significant difference between the sham control group (CG) receiving test compounds and vehicle-only sham control group (VCG) receiving vehicle.
EXAMPLE. Novel Object Recognition test results. This test assesses episodic learning and memory-related stimulus recognition.

[3] = test system: Male Sprague Dawley rats; test: Treatment in the momentum exchange impact model; conditions: concussed rats, two head impacts; IP 10 mg/kg twice daily 5 days; two weeks post impact; vs sham Control
Protocol: EXAMPLE. Momentum exchange impact model. This model features several advantageous translational differences over some head injury models, such as the controlled cortical impact injury model. For example, the head, neck and body can move with impact, and the velocity of head movement and energy transfer can be calculated and scaled mild to provide range from moderate to severe concussions. Studies are conducted with moderate impacts with neuroradiological evidence of contusions. Male rats are concussed twice with one day. Additional details are described in Viano et al., “Evaluation of three animal models for concussion and serious brain injury” Ann Biomed Eng. 40(1):213-26 (2012). […] Sham non-concussed test animals are given vehicle or test compound. Test animals are treated twice daily for 5 consecutive days. At two weeks post concussion cognitive behaviors are assessed, using for example, the Barnes maze and/or novel recognition models. In addition, motor behaviors are assessed, using for example, beam walk and/or rotarod tests. […]
The pneumatic pressure drive is replicated, 50 g compactor, as described by Viano and reproduced consistently, the 7.4, 9.3, and 11.2 m/s impact velocities described for mild, medium, and severe head injury, respectively. The data described herein are obtained from a 9.12 meters/sec impact velocity, as determined using high-speed video recordings. […]

[4] = test system: Male Sprague Dawley rats; test: Edema and ventricular volumes (T2 relaxometry MRI); conditions: Treatment group; no significant difference to Control group
Protocol: EXAMPLE. T2 Relaxometry measurement of edema. MRI was conducted 24-28 days after the injury to characterize edematous volume in the lateral ventricles using T2 relaxometry. The time of imaging was based on the rat model used for TBI assessment by Charles River. Images are acquired using a multi-slice multi-echo (MSME) pulse sequence. The echo time (TE) is illustratively 11 ms, and 16 echoes are acquired during imaging with a recovery time (TR) of 2500 ms. Images are acquired with a field of view [FOV] 3 cm^2, data matrix=256×256×20 slices, thickness=1 mm. Values for […] relaxation time (T2) are obtained from all the slices using ParaVison 5.1 software. T2 is used to characterize the edematous volume in the lateral ventricle. The T2 values are used for segmentation and quantification of the ventricle volume. The T2 values are computed using the equation; y=A+Cexp (−t/T2) (S.D. weighted) obtained from the Paravision 5.1 software, where, A=absolute bias, C=signal intensity, t=echo time and T2=spin-spin relaxation time. The ventricle is identified as a hyperintensity on the T2 map over three 1 mm sections. The volume is calculated using a snake region growth algorithm in itk-SNAP (www.itksnap.org). The threshold is illustratively set at 6300 to 9000 as absolute pixel intensity. A point is seeded within the ventricle and the algorithm run until segmentation is complete. […]

`C[C@@H](NC(=O)[C@@H](CC(=O)N1CCC(N2CCCCC2)CC1)N1C(=O)[C@@H](N2C(=O)OC[C@@H]2c2ccccc2)[C@H]1/C=C/c1cccc(I)c1)c1ccccc1` [Example 266] was tested, and the “rotarod latency to fall” value ([1]; Treatment group, Injury group 69.8±5.5, Control group 105.4±7.6, P=0.2) was 84.0 ± 9.0 s, the “overall motor behavior, Control vs Treatment group” value ([1]; concussed rats, IP 10 mg/kg twice daily 5 days) was “not a significant difference in overall motor behavior” and the “percentage of time with the novel object compared to the Injury group” value ([2]; Treatment group P=0.003) was “significantly longer percentage of time”. For the same molecule, the “total time with the novel object compared to the Injury group” value ([2]; Treatment group P=0.02) was “significantly more total time”, the “exploration index (exploration instances) compared to the Injury group” value ([2]; Treatment group P=0.06) was “only a trend towards significance” and the “time investigating the novel object (recognition index) compared to chance” value ([2]; Treatment group, t(5)=2.61, p<0.05, IP 10 mg/kg twice daily 5 days) was “significantly greater than a chance amount of time”. The “deficits in learning and memory” value [3] was “no deficits in learning and memory” and the “volume of lateral ventricles at the level of impact” value [4] was “ventricular volume returns to normal levels”.
